# Assay results reported in ChEMBL document CHEMBL4680060, “Polybasic peptide-levofloxacin conjugates potentiate fluoroquinolones and other classes of antibiotics against multidrug-resistant Gram-negative bacteria” (Medchemcomm, 2019).
# Experiments:
# [1] = tested on: Pseudomonas aeruginosa; test: microbe, parasite or virus in culture; conditions: PAO1, 18 h
# [2] = tested on: Pseudomonas aeruginosa; test: microbe, parasite or virus in culture; conditions: PAO1, 18 h; remark: listed apart in the source
# [3] = tested on: Staphylococcus aureus; test: Antibacterial activity against Staphylococcus aureus ATCC 29213 assessed as inhibition of visible growth incubated for 18 hrs by CLSI protocol based microbroth dilution method; type: functional
# [4] = tested on: Staphylococcus aureus; test: Antibacterial activity against methicillin-resistant Staphylococcus aureus ATCC 33592 assessed as inhibition of visible growth incubated for 18 hrs by CLSI protocol based microbroth dilution method; type: functional
# [5] = tested on: Staphylococcus epidermidis; test: Antibacterial activity against methicillin-susceptible Staphylococcus epidermidis clinical isolate CANWARD-2008 81388 assessed as inhibition of visible growth incubated for 18 hrs by CLSI protocol based microbroth dilution method; type: functional
# [6] = tested on: Staphylococcus aureus; test: Antibacterial activity against methicillin-resistant Staphylococcus aureus clinical isolate CAN-ICU 61589 assessed as inhibition of visible growth incubated for 18 hrs by CLSI protocol based microbroth dilution method; type: functional
# [7] = tested on: Streptococcus pneumoniae; test: Antibacterial activity against Streptococcus pneumoniae ATCC 49619 assessed as inhibition of visible growth incubated for 18 hrs by CLSI protocol based microbroth dilution method; type: functional
# [8] = tested on: Enterococcus faecalis; test: Antibacterial activity against Enterococcus faecalis ATCC 29212 assessed as inhibition of visible growth incubated for 18 hrs by CLSI protocol based microbroth dilution method; type: functional
# [9] = tested on: Escherichia coli; test: Antibacterial activity against Escherichia coli ATCC 25922 assessed as inhibition of visible growth incubated for 18 hrs by CLSI protocol based microbroth dilution method; type: functional
# [10] = tested on: Enterobacter cloacae; test: Antibacterial activity against Enterobacter cloacae 117029 assessed as inhibition of visible growth incubated for 18 hrs by CLSI protocol based microbroth dilution method; type: functional
# [11] = tested on: Pseudomonas aeruginosa; test: Antibacterial activity against Pseudomonas aeruginosa ATCC 27853 assessed as inhibition of visible growth incubated for 18 hrs by CLSI protocol based microbroth dilution method; type: functional
# [12] = tested on: Stenotrophomonas maltophilia; test: Antibacterial activity against Stenotrophomonas maltophilia clinical isolate CAN-ICU 62584 assessed as inhibition of visible growth incubated for 18 hrs by CLSI protocol based microbroth dilution method; type: functional
# [13] = tested on: Acinetobacter baumannii; test: Antibacterial activity against Acinetobacter baumannii clinical isolate CAN-ICU 63169 assessed as inhibition of visible growth incubated for 18 hrs by CLSI protocol based microbroth dilution method; type: functional
# [14] = tested on: Klebsiella pneumoniae; test: Antibacterial activity against Klebsiella pneumoniae 116381 assessed as inhibition of visible growth incubated for 18 hrs by CLSI protocol based microbroth dilution method; type: functional
# [15] = tested on: Pseudomonas aeruginosa; test: Potentiation of ciprofloxacin-induced antibacterial activity against wild type Pseudomonas aeruginosa PAO1 assessed as ciprofloxacin MIC measured after 18 hrs by CLSI protocol based microbroth dilution method (reference value: 0.125 ug/ml); type: functional
# [16] = tested on: Pseudomonas aeruginosa; test: Potentiation of levofloxacin-induced antibacterial activity against wild type Pseudomonas aeruginosa PAO1 assessed as levofloxacin MIC measured after 18 hrs by CLSI protocol based microbroth dilution method (reference value: 0.5 ug/ml); type: functional
# [17] = tested on: Pseudomonas aeruginosa; test: Potentiation of moxifloxacin-induced antibacterial activity against wild type Pseudomonas aeruginosa PAO1 assessed as moxifloxacin MIC measured after 18 hrs by CLSI protocol based microbroth dilution method (reference value: 1 ug/ml); type: functional
# [18] = tested on: Pseudomonas aeruginosa; test: microbe, parasite or virus in culture; conditions: PAO1, 18 h; remark: listed apart in the source
SMILES,MIC [1],MIC [2],MIC [3],MIC [4],MIC [5],MIC [6],MIC [7],MIC [8],MIC [9],MIC [10],MIC [11],MIC [12],MIC [13],MIC [14],MIC [15],MIC [16],MIC [17],MIC [18]
O=C(O)c1cn(C2CC2)c2cc(N3CCNCC3)c(F)cc2c1=O [CIPROFLOXACIN],32 µg/mL,16 µg/mL,–,–,–,–,–,–,–,–,–,–,–,–,–,–,–,–
C[C@H]1COc2c(N3CCN(C)CC3)c(F)cc3c(=O)c(C(=O)N[C@@H](CCN)C(N)=O)cn1c23,–,–,> 128 µg/mL,> 128 µg/mL,> 128 µg/mL,> 128 µg/mL,> 128 µg/mL,> 128 µg/mL,128 µg/mL,> 128 µg/mL,> 128 µg/mL,> 128 µg/mL,> 128 µg/mL,> 128 µg/mL,0.125 µg/mL,0.5 µg/mL,1 µg/mL,–
COc1c(N2C[C@@H]3CCCN[C@@H]3C2)c(F)cc2c(=O)c(C(=O)O)cn(C3CC3)c12 [MOXIFLOXACIN],8 µg/mL,8 µg/mL,–,–,–,–,–,–,–,–,–,–,–,–,–,–,–,16 µg/mL
C[C@H]1COc2c(N3CCN(C)CC3)c(F)cc3c(=O)c(C(=O)N[C@H](CN)CCC(=O)O)cn1c23,–,–,> 128 µg/mL,> 128 µg/mL,> 128 µg/mL,> 128 µg/mL,> 128 µg/mL,> 128 µg/mL,> 128 µg/mL,> 128 µg/mL,> 128 µg/mL,> 128 µg/mL,> 128 µg/mL,> 128 µg/mL,0.125 µg/mL,0.5 µg/mL,1 µg/mL,–
C[C@H]1COc2c(N3CCN(C)CC3)c(F)cc3c(=O)c(C(=O)O)cn1c23.C[C@H]1COc2c(N3CCN(C)CC3)c(F)cc3c(=O)c(C(=O)O)cn1c23.O [LEVOFLOXACIN],–,16 µg/mL,≤ 0.25 µg/mL,≤ 0.25 µg/mL,≤ 0.25 µg/mL,> 128 µg/mL,–,2 µg/mL,≤ 0.25 µg/mL,0.125 µg/mL,–,4 µg/mL,1 µg/mL,128 µg/mL,–,–,–,16 µg/mL
C[C@H]1COc2c(N3CCN(C)CC3)c(F)cc3c(=O)c(C(=O)N[C@@H](CCN)C(=O)N[C@@H](CCN)C(N)=O)cn1c23,–,–,> 128 µg/mL,> 128 µg/mL,> 128 µg/mL,> 128 µg/mL,> 128 µg/mL,> 128 µg/mL,128 µg/mL,> 128 µg/mL,> 128 µg/mL,> 128 µg/mL,> 128 µg/mL,> 128 µg/mL,0.125 µg/mL,0.25 µg/mL,1 µg/mL,–
C[C@H]1COc2c(N3CCN(C)CC3)c(F)cc3c(=O)c(C(=O)NCCCCCCCCCCCC(=O)N[C@@H](CCN)C(N)=O)cn1c23,–,–,128 µg/mL,> 128 µg/mL,64 µg/mL,128 µg/mL,> 128 µg/mL,> 128 µg/mL,> 128 µg/mL,128 µg/mL,> 128 µg/mL,> 128 µg/mL,> 128 µg/mL,> 128 µg/mL,0.063 µg/mL,0.25 µg/mL,1 µg/mL,–
C[C@H]1COc2c(N3CCN(C)CC3)c(F)cc3c(=O)c(C(=O)N[C@@H](CCC(=O)O)C(=O)N[C@H](CN)CCC(=O)O)cn1c23,–,–,> 128 µg/mL,> 128 µg/mL,> 128 µg/mL,> 128 µg/mL,> 128 µg/mL,> 128 µg/mL,128 µg/mL,> 128 µg/mL,> 128 µg/mL,16 µg/mL,> 128 µg/mL,> 128 µg/mL,0.125 µg/mL,0.5 µg/mL,1 µg/mL,–
